Reference: US8431593B2, “Heteroaryl amide derivatives” (H. Lundbeck A/S, priority 2006, dated 2013)
Where two headings read alike, the source gives them in different places. Blank lines part the entries; values can stand above or below the compound they belong to.

Biological target: T1, P2X7 receptor (Homo sapiens, UniProt Q99572)
T1 construct: host or cells: SH-SY5Y
T1 sequence (Q99572 1-595): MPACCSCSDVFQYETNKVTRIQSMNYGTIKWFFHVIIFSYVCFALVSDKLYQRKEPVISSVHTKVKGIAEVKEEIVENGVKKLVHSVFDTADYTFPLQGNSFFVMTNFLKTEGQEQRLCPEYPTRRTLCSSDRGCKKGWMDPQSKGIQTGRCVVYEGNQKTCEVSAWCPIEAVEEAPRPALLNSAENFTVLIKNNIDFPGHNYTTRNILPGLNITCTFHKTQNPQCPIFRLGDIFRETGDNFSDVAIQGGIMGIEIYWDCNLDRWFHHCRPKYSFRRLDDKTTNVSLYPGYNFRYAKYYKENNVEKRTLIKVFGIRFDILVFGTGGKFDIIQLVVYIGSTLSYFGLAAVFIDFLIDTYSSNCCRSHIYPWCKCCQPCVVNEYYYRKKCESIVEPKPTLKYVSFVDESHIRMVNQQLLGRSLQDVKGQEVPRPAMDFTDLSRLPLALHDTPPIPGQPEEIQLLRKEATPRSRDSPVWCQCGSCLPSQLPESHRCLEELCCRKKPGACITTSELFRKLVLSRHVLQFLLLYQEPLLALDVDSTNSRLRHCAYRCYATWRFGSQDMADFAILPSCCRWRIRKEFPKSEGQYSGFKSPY
Test: P2X7 calcium mobilization assay, high throughput, antagonist activity (Example 4A)
Type: cell-based
Outline: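 Dye-loaded cells (100,000/well, seeded previous day) are pre-exposed to compound for an hour at room temperature. Fluorescence maxima are baseline-corrected against no-agonist wells and compared with the averaged agonist-well maximum.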

[1] = 50% decrease in the fluorescence response of cells exposed to 80 μM 2′(3′)-O-(4-benzoyl-benzoyl)adenosine 5′-triphosphate, Example 4A, read-out: IC50
[2] = 50% decrease in the fluorescence response of cells exposed to 80 μM of 2′(3′)-O-(4-benzoyl-benzoyl)adenosine 5′-triphosphate, determined as in Example 4A, read-out: IC50
[3] = P2X7 calcium mobilization, Example 4A, 50% decrease in the fluorescence response of cells exposed to 80 μM of (2′(3′)-O-(4-benzoyl-benzoyl)adenosine 5′-triphosephate), read-out: IC50
[4] = SH-SY5Y cells, 50% decrease in fluorescence response to 80 μM BzATP, read-out: IC50
[5] = 50% decrease in the fluorescence response of cells exposed to 80 μM of 2′(3′)-O-(4-benzoyl-benzoyl)adenosine 5′-triphosphate, Example 4A, read-out: IC50
[6] = fluorescence response of cells exposed to 80 μM 2′(3′)-O-(4-benzoyl-benzoyl)adenosine 5′-triphosphate, Example 4A, read-out: IC50

SMILES: CCN(C)C(=O)c1cn2c(C(=O)NC[C@@H]3CC[C@H]4C[C@@H]3C4(C)C)cccc2n1 [Compound 469, 5-N-{[(1S,2R,5S)-6,6-dimethylbicyclo[3.1.1]hept-2-yl]methyl}-2-N-ethyl-2-N-methylimidazo[1,2-a]pyridine-2,5-dicarboxamide]
IC50 [1]: < 2000 nM

SMILES: CCCN(CCC)C(=O)c1cn2c(C(=O)NC[C@@H]3CC[C@H]4C[C@@H]3C4(C)C)cccc2n1 [Compound 476, 5-N-{[(1S,2R,5S)-6,6-dimethylbicyclo[3.1.1]hept-2-yl]methyl}-2-N,2-N-dipropylimidazo[1,2-a]pyridine-2,5-dicarboxamide]
IC50: < 2000 nM

SMILES: CC(C)N1CCN(C(=O)Cc2cn3c(C(=O)NCC45CC6CC(CC(C6)C4)C5)cccc3n2)CC1 [Compound 164, N-(adamantan-1-ylmethyl)-2-[2-(4-isopropylpiperazin-1-yl)-2-oxoethyl]imidazo[1,2-a]pyridine-5-carboxamide]
IC50 [4]: < 2000 nM

SMILES: CN(C(=O)c1cn2c(C(=O)NCC34CC5CC(CC(C5)C3)C4)cccc2n1)C1CCCNC1 (stereo not shown) [Compound 605, 5-N-(adamantan-1-ylmethyl)-2-N-methyl-2-N-piperidin-3-ylimidazo[1,2-a]pyridine-2,5-dicarboxamide]
IC50 [1]: < 2000 nM

SMILES: CC1(C)[C@@H]2CC[C@@H](CNC(=O)c3cccc4nc(CC(=O)N5CCCC5CN)cn34)[C@H]1C2 (stereo partly drawn) [Compound 580, 2-{2-[2-(aminomethyl)pyrrolidin-1-yl]-2-oxoethyl}-N-{[(1R,2R,5R)-6,6-dimethylbicyclo[3.1.1]hept-2-yl]methyl}imidazo[1,2-a]pyridine-5-carboxamide]
IC50 [1]: < 2000 nM

SMILES: CS(=O)(=O)OCCc1cn2c(C(=O)NCC34CC5CC(CC(C5)C3)C4)cccc2n1 [Compound 63, methanesulfonic acid 2-{5-[(adamantan-1-ylmethyl)-carbamoyl]-imidazo[1,2-a]pyridin-2-yl}-ethyl ester]
IC50 [4]: < 2000 nM

SMILES: CCOC(=O)c1cn2c(C(=O)NCC34CC5CC(CC(C5)C3)C4)c(Cl)ccc2n1 [Compound 7, 5-[(adamantan-1-ylmethyl)-carbamoyl]-6-chloro-imidazo[1,2-a]pyridine-2-carboxylic acid ethyl ester]
IC50 [4]: < 2000 nM

SMILES: O=C(CC12CC3CC(CC(C3)C1)C2)Nc1cccc2nc(C(=O)N3CC[C@H](O)C3)cn12 [Compound 419, 2-adamantan-1-yl-N-(2-{[(3S)-3-hydroxypyrrolidin-1-yl]carbonyl}imidazo [1,2-a]pyridin-5-yl)acetamide]
IC50 [1]: < 2000 nM

SMILES: CC1(C)[C@H]2CC[C@@H](CNC(=O)c3cccc4nc(C(=O)N5CCOC(CN)C5)cn34)[C@@H]1C2 (stereo partly drawn) [Compound 336, 2-{[2-(aminomethyl)morpholin-4-yl]carbonyl}-N-{[(1S,2R,5S)-6,6-dimethylbicyclo[3.1.1]hept-2-yl]methyl}imidazo[1,2-a]pyridine-5-carboxamide]
IC50 [6]: < 2000 nM

SMILES: CCOC(=O)C(Cc1cccnc1)c1cn2c(C(=O)NCC34CC5CC(CC(C5)C3)C4)cccc2n1 (stereo not shown) [Compound 689, ethyl 2-{5-[(adamantan-1-ylmethyl)carbamoyl]imidazo[1,2-a]pyridin-2-yl}-3-pyridin-3-ylpropanoate]
IC50 [5]: < 2000 nM

SMILES: O=C(NCC12CC3CC(CC(C3)C1)C2)c1cccc2nc(CCI)cn12 [Compound 599, N-(adamantan-1-ylmethyl)-2-(2-iodoethyl)imidazo[1,2-a]pyridine-5-carboxamide]
IC50 [1]: < 2000 nM

SMILES: CC1(C)[C@H]2CC[C@@H](CNC(=O)c3cccc4nc(C(=O)N5C6CCC5CC(N)C6)cn34)[C@@H]1C2 (stereo partly drawn) [Compound 335, 2-[(3-amino-8-azabicyclo[3.2.1]oct-8-yl)carbonyl]-N-{[(1S,2R,5S)-6,6-dimethylbicyclo[3.1.1]hept-2-yl]methyl}imidazo[1,2-a]pyridine-5-carboxamide]
IC50 [6]: < 2000 nM

SMILES: O=C(Cc1cn2c(C(=O)NCC34CC5CC(CC(C5)C3)C4)cccc2n1)NC1CC1 [Compound 148, N-(adamantan-1-ylmethyl)-2-[2-(cyclopropylamino)-2-oxoethyl]imidazo[1,2-a]pyridine-5-carboxamide]
IC50 [4]: < 2000 nM

SMILES: CC(C)(C)NCCOC(=O)c1cn2c(NC(=O)CC34CC5CC(CC(C5)C3)C4)cccc2n1 [Compound 411, 2-(tert-butylamino)ethyl 5-[(adamantan-1-ylacetyl)amino] imidazo [1,2-a]pyridine-2-carboxylate]
IC50 [6]: < 2000 nM

The remaining lines, values ahead:

IC50 [2]: < 2000 nM
SMILES: CCOC(=O)Cc1nnnn1Cc1cn2c(C(=O)NCC34CC5CC(CC(C5)C3)C4)cccc2n1 [Compound 902, ethyl [1-({5-[(adamantan-1-ylmethyl)carbamoyl]imidazo[1,2-a]pyridin-2-yl}methyl)-1H-tetrazol-5-yl]acetate]

IC50 [2]: < 2000 nM
SMILES: O=C(NCC12CC3CC(CC(C3)C1)C2)c1cccc2nc(CC3(C(=O)O)CCOCC3)cn12 [Compound 847, 4-({5-[(adamantan-1-ylmethyl)carbamoyl]imidazo [1,2-a]pyridin-2-yl}methyl) tetrahydro-2H-pyran-4-carboxylic acid]

IC50 [3]: < 2000 nM
SMILES: CC(C)CC(CNC(=O)c1cccc2nc(C(C)N3CCC3)cn12)c1ccc(Cl)cc1 (stereo not shown) [Compound 1033, 2-(1-azetidin-1-ylethyl)-N-[2-(4-chlorophenyl)-4-methylpentyl] imidazo[1,2-a] pyridine-5-carboxamide]

IC50 [2]: < 2000 nM
SMILES: COc1ccc(C2(CNC(=O)c3cccc4nc(CC(=O)N[C@@H]5CCNC5)cn34)CCCCC2)cc1 [Compound 952, N-{[1-(4-methoxyphenyl)cyclohexyl]methyl}-2-{2-oxo-2-[(3R)-pyrrolidin-3-ylamino]ethyl}imidazo[1,2-a]pyridine-5-carboxamide]

IC50 [5]: < 2000 nM
SMILES: O=C(NCC12CC3CC(CC(C3)C1)C2)c1cccc2nc(C(Cc3ccccn3)C(=O)O)cn12 (stereo not shown) [Compound 732, 2-{5-[(adamantan-1-ylmethyl)carbamoyl]imidazo[1,2-a]pyridin-2-yl}-3-pyridin-2-ylpropanoic acid]

IC50 [2]: < 2000 nM
SMILES: Cc1ccc(C2(CNC(=O)c3cccc4nc(Cn5nnc(CCO)n5)cn34)CCCCC2)cn1 [Compound 922, 2-{[5-(2-hydroxyethyl)-2H-tetrazol-2-yl]methyl}-N-{[1-(6-methylpyridin-3-yl)cyclohexyl]methyl} imidazo[1,2-a] pyridine-5-carboxamide]

IC50 [5]: < 2000 nM
SMILES: O=C(NCC12CC3CC(CC(C3)C1)C2)c1cccc2nc(Cn3nnc(-c4cccnc4)n3)cn12 [Compound 813, N-(adamantan-1-ylmethyl)-2-[(5-pyridin-3-yl-2H-tetrazol-2-yl)methyl] imidazo[1,2-a] pyridine-5-carboxamide]

IC50 [3]: < 2000 nM
SMILES: CCOC(=O)Cc1cn2cc(C(=O)NCC34CC5CC(CC(C5)C3)C4)ccc2n1 [Compound 1063, ethyl {6-[(adamantan-1-ylmethyl)carbamoyl]imidazo[1,2-a]pyridin-2-yl} acetate]

IC50 [5]: < 2000 nM
SMILES: CCN(Cc1ccc(C2=NCCN2)cc1)C(=O)c1cn2c(C(=O)NCC34CC5CC(CC(C5)C3)C4)cccc2n1 [Compound 715, 5-N-(adamantan-1-ylmethyl)-2-N-[4-(4,5-dihydro-1H-imidazol-2-yl)benzyl]-2-N-ethylimidazo[1,2-a]pyridine-2,5-dicarboxamioe]

IC50 [2]: < 2000 nM
SMILES: CC(C)(C)CCNC(=O)Cc1cn2c(C(=O)NCC3(c4ccc(Cl)cc4)CCCCC3)cccc2n1 [Compound 871, N-{[1-(4-chlorophenyl)cyclohexyl]methyl}-2-{2-[(3,3-dimethylbutyl)amino]-2-oxoethyl} imidazo[1,2-a] pyridine-5-carboxamide]

IC50 [5]: < 2000 nM
SMILES: N#CCC1CCN(C(=O)c2cn3c(C(=O)NCC45CC6CC(CC(C6)C4)C5)cccc3n2)CC1 [Compound 705, N-(adamantan-1-ylmethyl)-2-{[4-(cyanomethyl)piperidin-1-yl]carbonyl} imidazo[1,2-a]pyridine-5-carboxamide]

IC50 [2]: < 2000 nM
SMILES: O=C(O)Cc1nnnn1Cc1cn2c(C(=O)NCC34CC5CC(CC(C5)C3)C4)cccc2n1 [Compound 904, [1-({5-[(adamantan-1-ylmethyl)carbamoyl]imidazo[1,2-a]pyridin-2-yl}methyl)-1H-tetrazol-5-yl]acetic acid]

IC50 [2]: < 2000 nM
SMILES: O=C(NCC1(c2cccnc2)CCCCC1)c1cccc2nc(Cn3nnc(CCO)n3)cn12 [Compound 921, 2-{[5-(2-hydroxyethyl)-2H-tetrazol-2-yl]methyl}-N-[(1-pyridin-3-ylcyclohexyl)methyl] imidazo[1,2-a] pyridine-5-carboxamide]

IC50 [5]: < 2000 nM
SMILES: CC(C)CC(CNC(=O)c1cccc2nc(CN3CC[C@@H](N)C3)cn12)c1ccc(Cl)cc1 (stereo partly shown) [Compound 762, 2-[(3-aminopyrrolidin-1-yl)methyl]-N-[2-(4-chlorophenyl)-4-methylpentyl] imidazo [1,2-a]pyridine-5-carboxamide]
